Bridge positions count the residues as written; N and C are the ends. Square brackets hold non-standard residues; d marks the D form. Peptide text beside a SMILES is read from it.
Test system: H1N1 A/PR/8/1934
Settings: A/PR/8/1934, 48 h; for % Inhibition: 1 μM

Compound	% Inhibition [%]	IC50 [nM]
CC[C@@H](C)[C@H]1NC(=O)[C@@H](Cc2ccccc2)NC(=O)[C@@H]([C@H](C)O)NC(=O)[C@@H](Cc2ccccc2)NC(=O)[C@@H](Cc2c[nH]c3ccccc23)NC(=O)[C@@H](Cc2c[nH]c3ccccc23)NC(=O)[C@H](NC(=O)[C@H](CCCCN)NC(=O)[C@H](CCCCN)NC(=O)[C@H](CCCNC(=N)N)NC(=O)[C@@H](N)CCCNC(=N)N)CSSC[C@H](C(=O)O)NC(=O)[C@@H](CCCNC(=N)N)NC1=O [PSP VI A15, H-RRKKcwwftfirc-OH] (H-RRKK[dC][dW][dW][dF][dT][dF][dI][dR][dC]-OH; disulfide 5-13)	92	
CC[C@@H](C)[C@H]1NC(=O)[C@@H](Cc2ccccc2)NC(=O)[C@@H]([C@H](C)O)NC(=O)[C@@H](Cc2ccccc2)NC(=O)[C@@H](Cc2c[nH]c3ccccc23)NC(=O)[C@@H](CCC(N)=O)NC(=O)[C@H](NC(=O)[C@H](CCCCN)NC(=O)[C@H](CCCCN)NC(=O)[C@H](CCCNC(=N)N)NC(=O)[C@@H](N)CCCNC(=N)N)CSSC[C@H](C(=O)O)NC(=O)[C@@H](CC(N)=O)NC1=O [PSP V A14, H-RRKKcqwftfinc-OH] (H-RRKK[dC][dQ][dW][dF][dT][dF][dI][dN][dC]-OH; disulfide 5-13)	44	
CC[C@@H](C)[C@H]1NC(=O)[C@@H](Cc2ccccc2)NC(=O)[C@@H]([C@H](C)O)NC(=O)[C@@H](Cc2ccccc2)NC(=O)[C@@H](Cc2c[nH]c3ccccc23)NC(=O)[C@@H](Cc2c[nH]c3ccccc23)NC(=O)[C@H](NC(=O)[C@H](CCCCN)NC(=O)[C@H](CCCCN)NC(=O)[C@H](CCCNC(=N)N)NC(=O)[C@@H](N)CCCNC(=N)N)CSSC[C@H](C(=O)O)NC(=O)[C@@H](Cc2ccc(O)cc2)NC1=O [PSP VI A20, H-RRKKcwwftfiyc-OH] (H-RRKK[dC][dW][dW][dF][dT][dF][dI][dY][dC]-OH; disulfide 5-13)	53	
CC[C@@H](C)[C@H]1NC(=O)[C@@H](Cc2ccccc2)NC(=O)[C@@H]([C@H](C)O)NC(=O)[C@@H](Cc2ccccc2)NC(=O)[C@@H](Cc2c[nH]c3ccccc23)NC(=O)[C@@H](Cc2c[nH]c3ccccc23)NC(=O)[C@H](NC(=O)[C@H](CCCCN)NC(=O)[C@H](CCCCN)NC(=O)[C@H](CCCNC(=N)N)NC(=O)[C@@H](N)CCCNC(=N)N)CSSC[C@H](C(=O)O)NC(=O)[C@@H](CCC(=O)O)NC1=O [PSP VI A4, H-RRKKcwwftfiec-OH] (H-RRKK[dC][dW][dW][dF][dT][dF][dI][dE][dC]-OH; disulfide 5-13)	65	
CC[C@@H](C)[C@H]1NC(=O)[C@@H](Cc2ccccc2)NC(=O)[C@@H]([C@H](C)O)NC(=O)[C@@H](Cc2ccccc2)NC(=O)[C@@H](Cc2c[nH]c3ccccc23)NC(=O)[C@@H](CC(N)=O)NC(=O)[C@H](NC(=O)[C@H](CCCCN)NC(=O)[C@H](CCCCN)NC(=O)[C@H](CCCNC(=N)N)NC(=O)[C@@H](N)CCCNC(=N)N)CSSC[C@H](C(=O)O)NC(=O)[C@@H](CC(N)=O)NC1=O [PSP V A12, H-RRKKcnwftfinc-OH] (H-RRKK[dC][dN][dW][dF][dT][dF][dI][dN][dC]-OH; disulfide 5-13)	<20	
CC[C@@H](C)[C@H]1NC(=O)[C@@H](Cc2ccccc2)NC(=O)[C@@H]([C@H](C)O)NC(=O)[C@@H](Cc2ccccc2)NC(=O)[C@@H](Cc2c[nH]c3ccccc23)NC(=O)[C@@H](Cc2c[nH]c3ccccc23)NC(=O)[C@H](NC(=O)[C@H](CCCCN)NC(=O)[C@H](CCCCN)NC(=O)[C@H](CCCNC(=N)N)NC(=O)[C@@H](N)CCCNC(=N)N)CSSC[C@H](C(=O)O)NC(=O)[C@@H](CC(N)=O)NC1=O [PSP V A19, H-RRKKcwwftfinc-OH] (H-RRKK[dC][dW][dW][dF][dT][dF][dI][dN][dC]-OH; disulfide 5-13)	97	20
CC[C@@H](C)[C@H]1NC(=O)[C@@H](Cc2ccccc2)NC(=O)[C@@H]([C@H](C)O)NC(=O)[C@@H](Cc2ccccc2)NC(=O)[C@@H](Cc2c[nH]c3ccccc23)NC(=O)CNC(=O)[C@H](NC(=O)[C@H](CCCCN)NC(=O)[C@H](CCCCN)NC(=O)[C@H](CCCNC(=N)N)NC(=O)[C@@H](N)CCCNC(=N)N)CSSC[C@H](C(=O)O)NC(=O)[C@@H](CC(N)=O)NC1=O [PSP V A6, H-RRKKcGwftfinc-OH] (H-RRKK[dC]G[dW][dF][dT][dF][dI][dN][dC]-OH; disulfide 5-13)	<20	
CC[C@@H](C)[C@H]1NC(=O)[C@@H](Cc2ccccc2)NC(=O)[C@@H]([C@H](C)O)NC(=O)[C@@H](Cc2ccccc2)NC(=O)[C@@H](Cc2c[nH]c3ccccc23)NC(=O)[C@@H](CC(C)C)NC(=O)[C@H](NC(=O)[C@H](CCCCN)NC(=O)[C@H](CCCCN)NC(=O)[C@H](CCCNC(=N)N)NC(=O)[C@@H](N)CCCNC(=N)N)CSSC[C@H](C(=O)O)NC(=O)[C@@H](CC(N)=O)NC1=O [PSP V A10, H-RRKKclwftfinc-OH] (H-RRKK[dC][dL][dW][dF][dT][dF][dI][dN][dC]-OH; disulfide 5-13)	65	
CC[C@@H](C)[C@H]1NC(=O)[C@@H](Cc2ccccc2)NC(=O)[C@@H]([C@H](C)O)NC(=O)[C@@H](Cc2ccccc2)NC(=O)[C@@H](Cc2c[nH]c3ccccc23)NC(=O)[C@@H](C(C)C)NC(=O)[C@H](NC(=O)[C@H](CCCCN)NC(=O)[C@H](CCCCN)NC(=O)[C@H](CCCNC(=N)N)NC(=O)[C@@H](N)CCCNC(=N)N)CSSC[C@H](C(=O)O)NC(=O)[C@@H](CC(N)=O)NC1=O [PSP V A18, H-RRKKcvwftfinc-OH] (H-RRKK[dC][dV][dW][dF][dT][dF][dI][dN][dC]-OH; disulfide 5-13)	81	
CC[C@@H](C)[C@H]1NC(=O)[C@@H](Cc2ccccc2)NC(=O)[C@@H]([C@H](C)O)NC(=O)[C@@H](Cc2ccccc2)NC(=O)[C@@H](Cc2c[nH]c3ccccc23)NC(=O)[C@@H](Cc2c[nH]c3ccccc23)NC(=O)[C@H](NC(=O)[C@H](CCCCN)NC(=O)[C@H](CCCCN)NC(=O)[C@H](CCCNC(=N)N)NC(=O)[C@@H](N)CCCNC(=N)N)CSSC[C@H](C(=O)O)NC(=O)[C@@H]([C@H](C)CC)NC1=O [PSP VI A8, H-RRKKcwwftfiic-OH] (H-RRKK[dC][dW][dW][dF][dT][dF][dI][dI][dC]-OH; disulfide 5-13)	49	
CC[C@@H](C)[C@H]1NC(=O)[C@@H](Cc2ccccc2)NC(=O)[C@@H]([C@H](C)O)NC(=O)[C@@H](Cc2ccccc2)NC(=O)[C@@H](Cc2c[nH]c3ccccc23)NC(=O)[C@@H](Cc2c[nH]c3ccccc23)NC(=O)[C@H](NC(=O)[C@H](CCCCN)NC(=O)[C@H](CCCCN)NC(=O)[C@H](CCCNC(=N)N)NC(=O)[C@@H](N)CCCNC(=N)N)CSSC[C@H](C(=O)O)NC(=O)[C@@H](CO)NC1=O [PSP VI A16, H-RRKKcwwftfisc-OH] (H-RRKK[dC][dW][dW][dF][dT][dF][dI][dS][dC]-OH; disulfide 5-13)	74	
CC[C@@H](C)[C@H]1NC(=O)[C@@H](Cc2ccccc2)NC(=O)[C@@H]([C@H](C)O)NC(=O)[C@@H](Cc2ccccc2)NC(=O)[C@@H](Cc2c[nH]c3ccccc23)NC(=O)[C@@H](Cc2c[nH]c3ccccc23)NC(=O)[C@H](NC(=O)[C@H](CCCCN)NC(=O)[C@H](CCCCN)NC(=O)[C@H](CCCNC(=N)N)NC(=O)[C@@H](N)CCCNC(=N)N)CSSC[C@H](C(=O)O)NC(=O)[C@@H](CCCCN)NC1=O [PSP VI A9, H-RRKKcwwftfikc-OH] (H-RRKK[dC][dW][dW][dF][dT][dF][dI][dK][dC]-OH; disulfide 5-13)	11	
CC[C@@H](C)[C@H]1NC(=O)[C@@H](Cc2ccccc2)NC(=O)[C@@H]([C@H](C)O)NC(=O)[C@@H](Cc2ccccc2)NC(=O)[C@@H](Cc2c[nH]c3ccccc23)NC(=O)[C@@H](Cc2c[nH]c3ccccc23)NC(=O)[C@H](NC(=O)[C@H](CCCCN)NC(=O)[C@H](CCCCN)NC(=O)[C@H](CCCNC(=N)N)NC(=O)[C@@H](N)CCCNC(=N)N)CSSC[C@H](C(=O)O)NC(=O)[C@@H](Cc2c[nH]cn2)NC1=O [PSP VI A7, H-RRKKcwwftfihc-OH] (H-RRKK[dC][dW][dW][dF][dT][dF][dI][dH][dC]-OH; disulfide 5-13)	38.5	
CC[C@@H](C)[C@H]1NC(=O)[C@@H](Cc2ccccc2)NC(=O)[C@@H]([C@H](C)O)NC(=O)[C@@H](Cc2ccccc2)NC(=O)[C@@H](Cc2c[nH]c3ccccc23)NC(=O)[C@@H](Cc2c[nH]c3ccccc23)NC(=O)[C@H](NC(=O)[C@H](CCCCN)NC(=O)[C@H](CCCCN)NC(=O)[C@H](CCCNC(=N)N)NC(=O)[C@@H](N)CCCNC(=N)N)CSSC[C@H](C(=O)O)NC(=O)[C@@H](CCSC)NC1=O [PSP VI A11, H-RRKKcwwftfimc-OH] (H-RRKK[dC][dW][dW][dF][dT][dF][dI][dM][dC]-OH; disulfide 5-13)	79	
CC[C@@H](C)[C@H]1NC(=O)[C@@H](Cc2ccccc2)NC(=O)[C@@H]([C@H](C)O)NC(=O)[C@@H](Cc2ccccc2)NC(=O)[C@@H](Cc2c[nH]c3ccccc23)NC(=O)[C@@H](Cc2c[nH]c3ccccc23)NC(=O)[C@H](NC(=O)[C@H](CCCCN)NC(=O)[C@H](CCCCN)NC(=O)[C@H](CCCNC(=N)N)NC(=O)[C@@H](N)CCCNC(=N)N)CSSC[C@H](C(=O)O)NC(=O)[C@@H](CS)NC1=O [PSP VI A2, H-RRKKcwwftficc-OH] (H-RRKK[dC][dW][dW][dF][dT][dF][dI][dC][dC]-OH; disulfide 5-13)	95	
CC[C@@H](C)[C@H]1NC(=O)[C@@H](Cc2ccccc2)NC(=O)[C@@H]([C@H](C)O)NC(=O)[C@@H](Cc2ccccc2)NC(=O)[C@@H](Cc2c[nH]c3ccccc23)NC(=O)[C@@H](CCSC)NC(=O)[C@H](NC(=O)[C@H](CCCCN)NC(=O)[C@H](CCCCN)NC(=O)[C@H](CCCNC(=N)N)NC(=O)[C@@H](N)CCCNC(=N)N)CSSC[C@H](C(=O)O)NC(=O)[C@@H](CC(N)=O)NC1=O [PSP V A11, M-RRKKcmwftfinc-OH] (H-RRKK[dC][dM][dW][dF][dT][dF][dI][dN][dC]-OH; disulfide 5-13; N-terminus assumed)	92	
CC[C@@H](C)[C@H]1NC(=O)[C@@H](Cc2ccccc2)NC(=O)[C@@H]([C@H](C)O)NC(=O)[C@@H](Cc2ccccc2)NC(=O)[C@@H](Cc2c[nH]c3ccccc23)NC(=O)[C@@H](C)NC(=O)[C@H](NC(=O)[C@H](CCCCN)NC(=O)[C@H](CCCCN)NC(=O)[C@H](CCCNC(=N)N)NC(=O)[C@@H](N)CCCNC(=N)N)CSSC[C@H](C(=O)O)NC(=O)[C@@H](CC(N)=O)NC1=O [PSP V A1, H-RRKKcawftfinc-OH] (H-RRKK[dC][dA][dW][dF][dT][dF][dI][dN][dC]-OH; disulfide 5-13)	<20	

From US10538554B2, “Peptides and uses therefor as antiviral agents” (priority 2015, dated 2020)
